Experimental data as given in US6746835B2, “Thermally processed image recording material” (Fuji Photo Film Co., Ltd., priority 2001, dated 2004).

Experiment: pKa of the conjugate acid of the enolate anion (acid/base titration or UV absorption method)
Type: physicochemical
Details: mixed solvent of THF/water=3/2
Text: The conjugate acid of the enolate anion in the formula (1) has a pKa value of 3.0-6.0. If the pKa value is less than 3.0, ultrahigh contrast images cannot be obtained. On the other hand, if it exceeds 6.0, stability before light exposure and development is degraded. The pKa value defined herein is a value obtained by the acid/base titration method or the UV absorption method in a mixed solvent of THF/water=3/2.

SMILES	pKa
CCCCCCCCCCCCNc1ccc(N2C(=O)/C(=C\O)N=C2C(F)(F)F)cc1 [Compound A-18]	3.1
CCCCCCCCCCCCc1cc(CCCCCCCCCCCC)cc(N2N=C/C(=C/O)C2=O)c1 [Compound R-1]	≤ 2.9
CCCCCCCCCCCCCCCc1cccc(CCCN2C(=O)/C(=C\O)c3ccccc32)c1 [Compound R-2]	6.3
O=C1/C(=C/O)N=C(c2cc(C(F)(F)F)cc(C(F)(F)F)c2)N1c1ccc(Cl)cc1 [Compound A-6]	3.8
